Measured values from patent US20100160293A1, “Solid Ophthalmic Drug for External Use” (priority 2005, published 2010).
Counter-ions that a name gives are not always drawn.

Assay: SKIN-CAD simulation of ketotifen fumarate concentration profile in conjunctiva
Parameters: species or system rabbit
Settings: simulation parameter
Excerpt: The above data were fed into SKIN-CAD (Biocom Systems, Inc., Fukuoka, Japan), a software for analysis of skin permeation of drugs, together with the parameters for hairless mouse skin permeation and parameters for rabbit tear fluid kinetics, to simulate a ketotifen fumarate concentration profile in rabbit's conjunctiva.
According to references, the rate of uptake of absorbed drugs by the subvascular tissues in normal capillary vessels is around 3-5% (K. Tojo, Mathematical models of transdermal and topical drug delivery, 2nd edition, Biocom Systems, Fkuoka, Japan, 2005), and the above transfer rate of 3% (i.e., the rate of uptake into the tear fluid) almost agrees with this. Based on this rate of uptake (3%), the profile of drug concentration in the conjunctiva was simulated again, this time on the assumption that the solid pharmaceutical preparation was rubbed on the skin only once, not ten times, by replacing the parameter for drug thickness in SKIN-CAD with 1/10 of the value in the above test, i.e., with 0.005 cm.
As to the concentration of the drug in the conjunctiva, the results of the above test where the solid pharmaceutical preparation was applied (Table 10, 10 times application) and a graph produced by SKIN-CAD in agreement with the results, the data after the above topical instillation (Table 13), and the result of the simulation by SKIN-CAD where the solid pharmaceutical preparation was rubbed only once (1 time application) are shown together in FIG. 9.

[1] = rabbit tear fluid pharmacokinetics

Absorption Rate Constant into Blood: 0.04 s⁻¹
Device/Skin Partition Coefficient (device design): 5.80 × 10^−2
Diffusion Coefficient in Device (device design): 1.97 × 10^−9 cm^2/sec
Diffusion Coefficient in Stratum Corneum (hairless mouse skin permeation): 1.12 × 10^−11 cm^2/sec
Elimination Rate Constant, K10 [1]: 0.00385 s⁻¹
Volume of Distribution, V1 [1]: 0.008 mL
Compound: CN1CCC(=C2c3ccccc3CC(=O)c3sccc32)CC1 [ketotifen fumarate]
Diffusion Coefficient in Viable Skin (hairless mouse skin permeation): 3.75 × 10^−7 cm^2/sec
Stratum Corneum/Viable Skin Partition Coefficient (hairless mouse skin permeation): 2.47 × 10^2
